Paper PMC12102023 (Saudi Pharmaceutical Journal : SPJ, 2025)
Read-outs that look alike come from different tables or passages of the source.

Legend:
[1] = system: MCF7 (mammary gland breast cancer); assay: MTT antiproliferation assay, MCF7; format: cell-based; conditions: Homo sapiens, MCF7, read-out: IC50 (µM) MCF- 7
CDK9 = CDK9 (Homo sapiens, UniProt P50750); assay: biochemical
[2] = system: WI- 38 (embryonic lung fibroblasts); assay: MTT assay, WI-38 fibroblasts; format: cell-based; conditions: Homo sapiens, WI-38, read-out: IC50 (µM) WI- 38
[3] = system: HCT116 (colorectal carcinoma); assay: MTT antiproliferation assay, HCT116; format: cell-based; conditions: Homo sapiens, HCT-116, read-out: IC50 (µM) HCT- 116
[4] = system: HepG2 (hepatocellular carcinoma); assay: MTT antiproliferation assay, HepG2; format: cell-based, human
CDK12 = CDK12 (Homo sapiens, UniProt Q9NYV4); assay: CDK12 inhibition assay; format: biochemical
CDK12, sequence (Q9NYV4 whole entry): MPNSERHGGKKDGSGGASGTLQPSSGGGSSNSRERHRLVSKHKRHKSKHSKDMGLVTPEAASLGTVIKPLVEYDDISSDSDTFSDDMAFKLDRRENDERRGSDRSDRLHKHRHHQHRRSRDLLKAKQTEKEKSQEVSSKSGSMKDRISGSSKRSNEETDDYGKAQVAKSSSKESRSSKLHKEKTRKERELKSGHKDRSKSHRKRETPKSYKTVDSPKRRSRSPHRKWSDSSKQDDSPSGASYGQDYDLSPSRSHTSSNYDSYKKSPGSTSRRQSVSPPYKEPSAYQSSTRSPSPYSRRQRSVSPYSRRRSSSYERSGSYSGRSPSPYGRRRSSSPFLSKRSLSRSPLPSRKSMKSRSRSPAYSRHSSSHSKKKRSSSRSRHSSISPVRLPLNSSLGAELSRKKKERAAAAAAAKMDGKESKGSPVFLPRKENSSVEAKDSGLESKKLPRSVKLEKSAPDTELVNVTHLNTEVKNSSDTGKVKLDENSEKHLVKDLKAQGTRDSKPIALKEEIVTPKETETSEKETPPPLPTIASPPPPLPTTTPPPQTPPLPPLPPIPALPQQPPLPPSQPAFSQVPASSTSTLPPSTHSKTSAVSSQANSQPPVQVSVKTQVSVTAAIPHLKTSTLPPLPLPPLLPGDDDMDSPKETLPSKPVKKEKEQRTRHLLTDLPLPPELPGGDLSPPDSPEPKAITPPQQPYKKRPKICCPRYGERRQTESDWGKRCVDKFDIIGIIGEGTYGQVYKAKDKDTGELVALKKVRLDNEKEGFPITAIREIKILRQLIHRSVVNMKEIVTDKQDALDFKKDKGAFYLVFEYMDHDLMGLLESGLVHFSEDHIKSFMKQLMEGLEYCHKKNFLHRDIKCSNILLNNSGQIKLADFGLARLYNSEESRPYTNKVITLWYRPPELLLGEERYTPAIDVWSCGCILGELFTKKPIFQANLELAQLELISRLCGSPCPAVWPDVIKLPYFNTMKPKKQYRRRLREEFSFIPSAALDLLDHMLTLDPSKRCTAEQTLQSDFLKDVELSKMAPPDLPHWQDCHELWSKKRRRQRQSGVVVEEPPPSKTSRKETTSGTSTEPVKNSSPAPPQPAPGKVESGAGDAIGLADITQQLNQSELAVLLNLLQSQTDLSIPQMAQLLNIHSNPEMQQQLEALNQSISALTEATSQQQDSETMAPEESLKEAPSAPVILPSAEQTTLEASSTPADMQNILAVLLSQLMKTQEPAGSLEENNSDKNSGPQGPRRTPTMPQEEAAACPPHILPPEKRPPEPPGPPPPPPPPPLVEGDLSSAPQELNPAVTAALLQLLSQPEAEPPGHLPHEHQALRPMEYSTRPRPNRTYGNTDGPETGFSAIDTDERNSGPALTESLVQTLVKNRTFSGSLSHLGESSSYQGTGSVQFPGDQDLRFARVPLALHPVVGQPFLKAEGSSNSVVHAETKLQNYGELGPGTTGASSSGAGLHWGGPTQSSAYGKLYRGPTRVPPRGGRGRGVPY
CDK12, sequence (O75909 whole entry partner): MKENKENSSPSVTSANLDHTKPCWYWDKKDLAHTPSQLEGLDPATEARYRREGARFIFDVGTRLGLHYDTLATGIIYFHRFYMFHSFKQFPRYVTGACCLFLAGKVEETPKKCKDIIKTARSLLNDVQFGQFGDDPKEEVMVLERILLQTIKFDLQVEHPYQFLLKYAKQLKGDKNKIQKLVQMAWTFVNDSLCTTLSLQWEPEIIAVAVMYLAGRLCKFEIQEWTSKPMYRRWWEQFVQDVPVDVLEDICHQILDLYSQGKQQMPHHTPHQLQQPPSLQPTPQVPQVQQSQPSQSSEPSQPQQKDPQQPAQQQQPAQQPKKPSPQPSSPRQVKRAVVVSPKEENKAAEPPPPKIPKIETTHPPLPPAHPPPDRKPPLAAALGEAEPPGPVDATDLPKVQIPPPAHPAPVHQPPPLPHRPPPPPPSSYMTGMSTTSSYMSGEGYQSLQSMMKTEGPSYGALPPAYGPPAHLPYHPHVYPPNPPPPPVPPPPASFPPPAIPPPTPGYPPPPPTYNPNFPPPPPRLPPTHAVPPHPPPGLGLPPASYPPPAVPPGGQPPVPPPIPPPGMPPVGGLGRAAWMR

[5] = system: HeLa (cervical epithelioid carcinoma); assay: MTT antiproliferation assay, HeLa; format: cell-based, human
[6] = Homo sapiens, HepG2, read-out: IC50 (µM) HePG- 2, MTT assay, HepG2 cells
[7] = Homo sapiens, HeLa, read-out: IC50 (µM) Hela, MTT assay, HeLa cells
[8] = read-out: IC50 (µM) Hela, MTT assay, HeLa cells

CDK9, sequence (P50750 whole entry): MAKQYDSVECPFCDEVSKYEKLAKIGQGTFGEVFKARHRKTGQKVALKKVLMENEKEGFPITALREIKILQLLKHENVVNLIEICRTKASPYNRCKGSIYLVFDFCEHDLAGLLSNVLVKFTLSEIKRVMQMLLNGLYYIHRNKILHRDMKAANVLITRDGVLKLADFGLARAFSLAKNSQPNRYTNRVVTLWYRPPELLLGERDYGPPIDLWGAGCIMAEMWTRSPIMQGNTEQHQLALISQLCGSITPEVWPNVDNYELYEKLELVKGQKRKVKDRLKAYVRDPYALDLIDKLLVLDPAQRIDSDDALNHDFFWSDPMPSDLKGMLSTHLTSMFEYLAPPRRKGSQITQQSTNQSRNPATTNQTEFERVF
CDK9, sequence (O60563 whole entry partner): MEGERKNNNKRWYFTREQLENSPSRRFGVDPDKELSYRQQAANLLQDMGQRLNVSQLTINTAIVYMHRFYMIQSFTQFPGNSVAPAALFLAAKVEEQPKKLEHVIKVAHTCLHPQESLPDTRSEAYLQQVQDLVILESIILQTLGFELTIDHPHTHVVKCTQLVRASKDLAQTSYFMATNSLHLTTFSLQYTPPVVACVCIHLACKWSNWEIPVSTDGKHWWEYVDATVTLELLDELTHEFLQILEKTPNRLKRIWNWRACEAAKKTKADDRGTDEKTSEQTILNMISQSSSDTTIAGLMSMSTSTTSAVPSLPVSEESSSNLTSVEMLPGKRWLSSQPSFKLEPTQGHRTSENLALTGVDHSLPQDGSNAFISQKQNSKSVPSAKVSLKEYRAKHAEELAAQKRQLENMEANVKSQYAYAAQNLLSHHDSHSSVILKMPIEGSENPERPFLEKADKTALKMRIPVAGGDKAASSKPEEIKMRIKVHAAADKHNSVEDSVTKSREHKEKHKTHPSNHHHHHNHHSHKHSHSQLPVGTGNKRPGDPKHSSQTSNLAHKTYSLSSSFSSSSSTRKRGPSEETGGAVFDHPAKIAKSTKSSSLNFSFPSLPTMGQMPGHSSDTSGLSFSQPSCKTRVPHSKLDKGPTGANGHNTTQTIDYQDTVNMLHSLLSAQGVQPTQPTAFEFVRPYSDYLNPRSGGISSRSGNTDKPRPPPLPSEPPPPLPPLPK

IC50 [1] [µM]	IC50 (CDK9) [nM]	IC50 [3] [µM]	IC50 [4, 6] [µM]	IC50 (CDK12) [nM]	IC50 [5, 7] [µM]	IC50 ([4]; read-out: IC50 (µM) HePG- 2, MTT assay, HepG2 cells) [µM]	IC50 [5, 8] [µM]	SMILES	IC50 [2] [µM]
21.7 ± 1.7	762 ± 33	33.5 ± 2	15.4 ± 1.2	1140 ± 44	23.6 ± 1.7			Cc1nc2ccccc2n1-c1nc(Nc2cccc(S(N)(=O)=O)c2)ncc1F [Compound 4f, 3-((5-fluoro-4-(2-methyl-1H-benzo[d]imidazol-1-yl)pyrimidin-2-yl)amino)benzenesulfonamide]	41.2 ± 2.5
> 50	782 ± 34	> 50	> 50	1330 ± 52	> 50			NS(=O)(=O)c1cccc(Nc2ncc(C(F)(F)F)c(-n3cnc4ccccc43)n2)c1 [Compound 4 d, 3-((4-(1H-benzo[d]imidazol-1-yl)− 5-(trifluoromethyl)pyrimidin-2-yl)amino)benzenesulfonamide]	> 50
> 50	1050 ± 45	> 50	> 50	1880 ± 73	> 50			Cc1cnc(Nc2cccc(S(N)(=O)=O)c2)nc1-n1c(C(C)C)nc2ccccc21 [Compound 4o, 3-((4-(2-isopropyl-1H-benzo[d]imidazol-1-yl)− 5-methylpyrimidin-2-yl)amino)benzenesulfonamide]	> 50
32.4 ± 2	392 ± 17	43.3 ± 2.5	19.8	179 ± 7	36.4 ± 2.1	19.9 ± 1.4		CC(C)c1nc2ccccc2n1-c1nc(Nc2cccc(S(N)(=O)=O)c2)ncc1F [Compound 4n, 3-((5-fluoro-4-(2-isopropyl-1H-benzo[d]imidazol-1-yl)pyrimidin-2-yl)amino)benzenesulfonamide]	76.1 ± 3.9
8.19 ± 0.5	57 ± 2	13.7 ± 1	5.88 ± 0.4	74 ± 3	9.71 ± 0.7			NS(=O)(=O)c1cccc(Nc2nccc(-n3c(C4CC4)nc4ccccc43)n2)c1 [Compound 4q, 3-((4-(2-cyclopropyl-1H-benzo[d]imidazol-1-yl)pyrimidin-2-yl)amino)benzenesulfonamide]	31.4 ± 2.1
11.7 ± 0.9	55 ± 2	16.8 ± 1.2	8.54 ± 0.7	104 ± 4	19.4		19.2 ± 1.5	NS(=O)(=O)c1cccc(Nc2ncc(F)c(-n3c(C(F)(F)F)nc4ccccc43)n2)c1 [Compound 4j, 3-((5-fluoro-4-(2-(trifluoromethyl)− 1H-benzo[d]imidazol-1-yl)pyrimidin-2-yl)amino)benzenesulfonamide]	> 50
27.8 ± 1.8	121 ± 5	38.8 ± 2.3	29.3 ± 1.9	533 ± 21	30.3 ± 1.9			NS(=O)(=O)c1cccc(Nc2ncc(C(F)(F)F)c(-n3c(C4CC4)nc4ccccc43)n2)c1 [Compound 4 t, 3-((4-(2-cyclopropyl-1H-benzo[d]imidazol-1-yl)− 5-(trifluoromethyl)pyrimidin-2-yl)amino)benzenesulfonamide]	> 50
2.18 ± 0.1	40 ± 2	7.19 ± 0.5	3.56 ± 0.2	60 ± 2	6.39 ± 0.4			CC(C)c1nc2ccccc2n1-c1ccnc(Nc2cccc(S(N)(=O)=O)c2)n1 [Compound 4 m, 3-((4-(2-isopropyl-1H-benzo[d]imidazol-1-yl)pyrimidin-2-yl)amino)benzenesulfonamide]	> 50
14.2 ± 1.2	1150 ± 50	24.7 ± 1.7	22.3 ± 1.6	566 ± 22	17 ± 1.3			NS(=O)(=O)c1cccc(Nc2ncc(F)c(-n3cnc4ccccc43)n2)c1 [Compound 4b, 3-((4-(1H-benzo[d]imidazol-1-yl)− 5-fluoropyrimidin-2-yl)amino)benzenesulfonamide]	46.7 ± 2.6
> 50	50 ± 2	> 50	> 50	153 ± 6	> 50			Cc1nc2ccccc2n1-c1nc(Nc2cccc(S(N)(=O)=O)c2)ncc1C(F)(F)F [Compound 4 h, 3-((4-(2-methyl-1H-benzo[d]imidazol-1-yl)− 5-(trifluoromethyl)pyrimidin-2-yl)amino)benzenesulfonamide]	> 50
> 50	396 ± 17	> 50	> 50	295 ± 11	> 50			NS(=O)(=O)c1cccc(Nc2nccc(-n3cnc4ccccc43)n2)c1 [Compound 4a, 3-((4-(1H-benzo[d]imidazol-1-yl)pyrimidin-2-yl)amino)benzenesulfonamide]	25.4 ± 1.8
> 50	41 ± 2	> 50	44.4 ± 2.5	140 ± 5	49.8 ± 2.7			Cc1cnc(Nc2cccc(S(N)(=O)=O)c2)nc1-n1cnc2ccccc21 [Compound 4c, 3-((4-(1H-benzo[d]imidazol-1-yl)− 5-methylpyrimidin-2-yl)amino)benzenesulfonamide]	> 50
			4.5 ± 0.2					COc1cccc2c1C(=O)c1c(O)c3c(c(O)c1C2=O)C[C@@](O)(C(=O)CO)C[C@@H]3O[C@H]1C[C@H](N)[C@H](O)[C@H](C)O1 [Doxorubicin, reference compound]	
45.7 ± 2.4	408 ± 18	> 50	38.1 ± 2.3	189 ± 7	47.2 ± 2.5			Cc1cnc(Nc2cccc(S(N)(=O)=O)c2)nc1-n1c(C2CC2)nc2ccccc21 [Compound 4 s, 3-((4-(2-cyclopropyl-1H-benzo[d]imidazol-1-yl)− 5-methylpyrimidin-2-yl)amino)benzenesulfonamide]	28 ± 2
> 50	1670 ± 72	> 50	> 50	899 ± 35	> 50			NS(=O)(=O)c1cccc(Nc2ncc(C(F)(F)F)c(-n3c(C(F)(F)F)nc4ccccc43)n2)c1 [Compound 4 l, 3-((5-(trifluoromethyl)− 4-(2-(trifluoromethyl)− 1H-benzo[d]imidazol-1-yl)pyrimidin-2-yl)amino)benzenesulfonamide]	18.3 ± 1.3
5.08 ± 0.3	114 ± 5	9.34 ± 0.8	7.59 ± 0.6	71 ± 3	12.6		12.7 ± 0.9	Cc1cnc(Nc2cccc(S(N)(=O)=O)c2)nc1-n1c(C)nc2ccccc21 [Compound 4 g, 3-((5-methyl-4-(2-methyl-1H-benzo[d]imidazol-1-yl)pyrimidin-2-yl)amino)benzenesulfonamide]	> 50
> 50	153 ± 7	> 50	> 50	664 ± 26	> 50			CC(C)c1nc2ccccc2n1-c1nc(Nc2cccc(S(N)(=O)=O)c2)ncc1C(F)(F)F [Compound 4p, 3-((4-(2-isopropyl-1H-benzo[d]imidazol-1-yl)− 5-(trifluoromethyl)pyrimidin-2-yl)amino)benzenesulfonamide]	45.3 ± 2.7
> 50	1090 ± 47	> 50	48.3 ± 2.7	365 ± 14	> 50			NS(=O)(=O)c1cccc(Nc2nccc(-n3c(C(F)(F)F)nc4ccccc43)n2)c1 [Compound 4i, 3-((4-(2-(trifluoromethyl)− 1H-benzo[d]imidazol-1-yl)pyrimidin-2-yl)amino)benzenesulfonamide]	> 50
39.8 ± 2.2	5470 ± 236	48.7 ± 2.7	34.1 ± 2.1	1210 ± 47	42.8 ± 2.3			Cc1cnc(Nc2cccc(S(N)(=O)=O)c2)nc1-n1c(C(F)(F)F)nc2ccccc21 [Compound 4k, 3-((5-methyl-4-(2-(trifluoromethyl)− 1H-benzo[d]imidazol-1-yl)pyrimidin-2-yl)amino)benzenesulfonamide]	> 50
> 50	409 ± 18	> 50	> 50	425 ± 17	> 50			Cc1nc2ccccc2n1-c1ccnc(Nc2cccc(S(N)(=O)=O)c2)n1 [Compound 4e, 3-((4-(2-methyl-1H-benzo[d]imidazol-1-yl)pyrimidin-2-yl)amino)benzenesulfonamide]	39 ± 2.3
16.2 ± 1.4	242 ± 10	29.8 ± 1.9	11.4 ± 0.9	104 ± 1	26.5 ± 1.8			NS(=O)(=O)c1cccc(Nc2ncc(F)c(-n3c(C4CC4)nc4ccccc43)n2)c1 [Compound 4r, 3-((4-(2-cyclopropyl-1H-benzo[d]imidazol-1-yl)− 5-fluoropyrimidin-2-yl)amino)benzenesulfonamide]	> 50
